Experimental data taken from patent publication US20240400572A1, “COMPOUNDS AND METHODS FOR TREATING CANCERS THAT ARE MGMT DEFICIENT REGARDLESS OF MMR STATUS” (Yale University, priority 2021, published 2024).

Legend:
[1] = tested on: LN229 MGMT− cells with shRNA targeting MSH6, MLH1, PMS2, or MSH3; assay: Short-term cell viability assay in cells lacking other MMR proteins; type: cell-based, human
Description: FIGS. ZS3A-ZS3J. KL-50 (4a) is effective in TMZ (1a)-resistant cells lacking other MMR proteins. (FIG. ZS3A) Western blotting performed in LN229 MGMT+/− cells with stable expression of shRNA targeting MSH6, MLH1, PMS2, or MSH3 to confirm depletion of the shRNA targets. In shMSH6 cells, there is reduced expression of MSH2, and in shMLH1 cells, there is loss of PMS2, due to destabilization in the setting of loss of their heterodimeric partners. GAPDH serves as loading control. (FIG. ZS3B) (Table S1.) IC50 values derived from short-term viability assays in LN229 MGMT+/− cells lines, +/−shRNA, treated with TMZ (1a) or KL-50 (4a). aMGMT TI (therapeutic index)=IC50 (MGMT+/MMR+) divided by IC50 (MGMT−/MMR+). bMMR RI (resistance index)=IC50 (MGMT−/MMR−) divided by IC50 (MGMT−/MMR+). (FIG. ZS3C) Short-term viability assay curves for TMZ (1a) in LN229 MGMT+/−, MMR+/shMSH6 cells. (FIG. ZS3D) Short-term viability assay curves for KL-50 (4a) in LN229 MGMT+/−, MMR+/shMSH6 cells. (FIG. ZS3E) Short-term viability assay curves for TMZ (1a) in LN229 MGMT+/−, MMR+/shMLH1 cells. (FIG. ZS3F) Short-term viability assay curves for KL-50 (4a) in LN229 MGMT+/−, MMR+/shMLH1 cells. (FIG. ZS3G) Short-term viability assay curves for TMZ (1a) in LN229 MGMT+/−, MMR+/shPMS2 cells. […]
Short-term Cell Viability Assay. […] Cells were imaged on a Cytation 3 imaging reader (BioTek) and quantified using CellProfiler software.

[2] = tested on: linearized pUC19 plasmid DNA; assay: In vitro DNA cross-linking assay; type: biochemical; conditions: 100 μM, 6-36 hours
Experimental: Plasmid Linearization Assay. To set up the linearization reactions, 20 units of EcoRI-HF (New England Biolabs) was mixed with 20 μg 2686 bp pUC19 vector DNA in CutSmart buffer (New England Biolabs), pH 7.9, in a total volume of 1000 μL for 30 min at 37° C. The CutSmart buffer contains 50 mM potassium acetate, 20 mM Tris acetate, 10 mM magnesium acetate, and 100 μg/mL BSA. The reacted DNA was then purified using PCR cleanup kit and quantified using the NanoDrop One (Thermo Fisher). The DNA was then stored at −20° C. before use in in vitro DNA cross-linking assays or melting temperature analysis.
In Vitro DNA Cross-linking Assays. Linearized pUC19 DNA, prepared as described above, was used for in vitro DNA cross-linking assays. For each condition, 200 ng of linearized pUC19 DNA (15.4 μM base pairs) was incubated with the indicated concentration of drug in 20 μL. Drug stock concentrations were made in DMSO such that each reaction contained a fixed 5% DMSO concentration. Reactions were conducted in 100 mM Tris buffer (pH 7.4). Cisplatin (Sigma) and DMSO vehicle were used as positive and negative controls, respectively. Reactions were conducted between 3-96 h at 37° C. The DNA was stored at −80° C. until electrophoretic analysis. For gel electrophoresis, DNA concentration was preadjusted to 10 ng/μL. […]

SMILES: NC(=O)c1ncn2c(=O)n(CCF)nnc12 [KL-50, 3-(2-fluoroethyl)-4-oxo-3H,4H-imidazo[4,3-d][1,2,3,5]tetrazine-8-carboxamide]
- activity in MGMT− cells lacking MSH6, MLH1, PMS2, or MSH3 (in words) [1]: confirmed the activity
- ICLs in plasmid DNA (in words) [2]: possessed ICLs, with delayed rates of formation relative to 12b
